# Measured values from patent publication US20260345605A1, “THERAPEUTIC AGENTS FOR HEART FAILURE” (Ottawa Hospital Research Institute, priority 2023, published 2026).
# Tests used:
# cardiac fibrosis = test: Cardiac fibrosis by Masson's trichome staining in PE rat model; type: in vivo, Sprague Dawley rat
# Experimental: (§1) Animal Model Preparation. Sprague Dawley rats were continuously treated with phenylephrine (PE), an α-adrenergic agonist that causes vasoconstriction leading to increased afterload and decreased ventricular function, to create a left-ventricular dysfunction animal model. […] For chronic infusion of phenylephrine, Alzet® mini-osmotic pumps (2002, Durect® Corp) containing Phenylephrine (PE) (10 mg/kg/day) or PBS vehicle were surgically implanted dorsally and subcutaneously in each Sprague Dawley rat under isoflurane anaesthesia. The animals were allowed to develop left ventricular hypertrophy for 2 weeks following the osmotic pump implantation.
# (§2) Echocardiography was performed, the animals were sacrificed at 3 weeks endpoint and the blood and tissue were harvested for further analysis.
# The rat model was prepared as described in Example 12, and the cardiac tissue harvested at the end of the 3 weeks was prepared with Masson's trichome staining methodology, which is a histological technique used to visualize and assess connective tissue, particularly collagen, within biological samples.
# [1] = test system: iPS cell-derived cardiomyocytes (iCell Cardiomyocytes); test: Secondary screening: morphometric analysis of iCell Cardiomyocytes; type: cell-based, human
# From the text: A library of 800 small molecule compounds that can stimulate favorable cardiac adaptation in primary neonatal rat ventricular myocytes (NRVM) was screened. To identify the beneficial modifiers of hypertrophy, the Cellomics Arrayscan High Throughput Screening platform was employed to quantify morphometric features such as, for example, length, width, and length to width ratio from images acquired using a 10× lens for DAPI-labeled nuclei and CY3 labeled α actinin stained cardiomyocytes in a 96 well format. The lead compound was also screened in iPSC derived cardiomyocytes as a part of secondary screening as it offers a physiologically relevant human cell-based model.
# (§3) A secondary screening was performed with 10 drugs identified from primary screening for their ability to induce physiological remodeling using morphometric analysis and measuring the levels of B-type natriuretic peptide (BNP), as a surrogate indicator of the hypertrophic response using ELISA. The compounds were selected based on the highly enriched targets identified in the drug set enrichment analysis with a high Z score. Cryopreserved iPS cell-derived cardiomyocytes (“iCell Cardiomyocytes”) obtained from Cellular Dynamics International (CDI, Madison, WI) were used as a cell model to perform the screening.
# The cells were plated at a density of 2.5×10^4 cells onto 25 mm diameter fibronectin coated glass coverslips in plating media for 48 hours. The media was replaced with Supplemented William's E (SWE) medium (SWE) media supplemented with cocktail containing penicillin-streptomycin, ITS+(insulin, transferrin, selenium complex, BSA, and linoleic acid), GlutaMAX™, and HEPES (Primary Hepatocyte Maintenance Supplements-GIBCO) for 48 hours. The cells were treated with controls (CT1-40 ng/mL, PE-100 uM) and drugs (AZD1152-HQPA, LY283519) at varying concentrations (2.5, 1, 0.5, and 0.25 uM) for 24 hours.
# Post treatments, the cells were washed, fixed and treated with primary antibody, secondary antibody similar to the protocol of Example 3. The effect on the morphometric parameters was assessed using Cellomics Arrayscan Vti HCS reader. The Image acquisition was performed using the Zeiss AxioVision SE64 Imaging software and analyzed using the ImageJ2 software.
# iCell cardiomyocytes were seeded at a density of 10,000 cells per well in a 96 well plate format. The cells were maintained as in Example 3 and were treated with controls (hCT1, PE) and drugs (AZD1152-HQPA, LY283519) at four different concentrations for 24 hours. The cells were then fixed and stained with a Actinin for cardiomyocytes followed by nuclear staining with DAPI. The plates were analyzed in Cellomics Arrayscan Vti HCS reader to assess morphometric changes following treatment.
# [2] = test system: NT Pro-BNP (iCell Cardiomyocyte); test: NT Pro-BNP ELISA in iCell Cardiomyocyte supernatants; type: cell-based, human; details: 24 hour; for Mean NT Pro-BNP levels: iCell Cardiomyocyte, UT 2407.521; for Pro-NT BNP levels compared to UT and CT1 treated cells: iCell cardiomyocytes
# Experimental: as §3
# Pro-NT BNP levels in the culture media were measured following the 24 hour treatment using the Human NT Pro-BNP DuoSet ELISA kit (R&D Systems, Minnesota USA) as per the manufacturer's instruction. […] The plates were read on BMG BioTek Molecular Devices SpectraMax Microplate Reader at 450 nm to obtain the optical density followed by reading at 540 nm for wavelength correction.
# Protein levels were identified by plotting a 4 parametric logistic regression curve using the standards provided with the kit.
# [3] = test system: phenylephrine induced left ventricular hypertrophy; test: Phenylephrine-induced left ventricular hypertrophy rat model: heart weight and echocardiography; type: in vivo, Sprague Dawley rat
# Experimental: as §1, §2
# cardiomyocytes (NRVMs) = test: Oxygen consumption rate of cardiomyocytes (Seahorse Mito Stress Test); type: cell-based, neonatal rat; details: 24 h treatment; vs untreated control; FIG. 12
# Experimental: OCR detection of cardiomyocytes was conducted with the Seahorse Xfe 24 analyzer (Agilent, Santa Clara, USA). Cardiomyocytes were seeded at a density of 8×10^4/well in a special Seahorse 24-well plate (102342-100, Seahorse). After treating with hCT1, PE and drug for 24 h, the medium was replaced with XF medium containing 10 mM D-(+)-glucose (G7021, Sigma-Aldrich), and 1 mM sodium pyruvate (11360070, Thermo Fisher). The plates were placed in a CO2-free 37 °C incubator for an hour before the measurement. A Seahorse XF Cell Mito Stress Test Kit (103015-100, Seahorse) was used for detection. The basal respiration of the NRVMs was detected, and ATP-linked OCR was analyzed after treatment with 1 μM oligomycin (ATP synthase inhibitor). Then, the uncoupling agent carbonyl [COMPOUND LEFT OUT] 4-(trifluoromethoxy) phenylhydrazone (FCCP) 0.5 μM was injected to detect maximal respiration. Finally, rotenone and antimycin A (AR) were used to abolish mitochondrial respiration by inhibiting complexes I and III, respectively.
# [4] = test system: cardiac angiogenesis (CD31); test: Cardiac angiogenesis by CD31 staining in PE rat model; type: in vivo, Sprague Dawley rat
# Experimental: as §1, §2
# The rat model was prepared as described in Example 12, and the cardiac tissue harvested at the end of the 3 weeks was prepared for CD31 Staining, which is a histological technique used to visualize and assess angiogenesis in cardiac tissue.
# [5] = LY2835219 alone and in rats subjected to phenylephrine
# [6] = PE treated rats, 3 weeks LY2835219 75 mg/kg/day oral
# [7] = PE, compared to control sham animals
# [8] = systole and diastole, PE compared to control and LY2835219 group
compound,measurement,setting,value
CCN1CCN(Cc2ccc(Nc3ncc(F)c(-c4cc(F)c5nc(C)n(C(C)C)c5c4)n3)nc2)CC1 [LY2835219],cardiac fibrosis,cardiac fibrosis; LY2835219 in animals subjected to PE treatment,did reduce fibrosis
same,cardiac fibrosis,cardiac fibrosis; LY2835219 treatment alone,did not induce fibrosis
same,Mean Cardiomyocyte Length,"[1]; iCell Cardiomyocyte, drug 0.25 μm, 24 hours, UT 213.01323",221 µm
same,Mean Cardiomyocyte Length,"[1]; iCell Cardiomyocyte, drug 0.5 μm, 24 hours, UT 213.01323",239 µm
same,Mean Cardiomyocyte Length,"[1]; iCell Cardiomyocyte, drug 1 μm, 24 hours, UT 213.01323",242 µm
same,Mean Cardiomyocyte Length,"[1]; iCell Cardiomyocyte, drug 2.5 μm, 24 hours, UT 213.01323",245 µm
same,Eccentric cardiac remodeling,"[1]; iCell cardiomyocyte, 1 uM, FIG. 4A",Eccentric cardiac remodeling was observed
same,cardiomyocyte length compared with CT1 treated cells,"[1]; iCell cardiomyocytes on coverslips, 24 hours",comparable cardiomyocyte length
same,length in iCell cardiomyocyte compared to hCT1,"[1]; iCell cardiomyocytes, 96 well, four concentrations, 24 hours",increased length in iCell cardiomyocyte comparable to length induced by hCT1
same,Mean NT Pro-BNP levels,[2]; drug 0.25 μm,1232.484 pg/mL
same,Mean NT Pro-BNP levels,[2]; drug 0.5 μm,1226.226 pg/mL
same,Mean NT Pro-BNP levels,[2]; drug 2.5 μm,1747.475 pg/mL
same,Pro-NT BNP levels compared to UT and CT1 treated cells,[2],comparable and/or reduced BNP levels
same,effect in phenylephrine induced left ventricular hypertrophy,"[3]; LY2835219 75 mg/kg/day oral, 3 weeks",anti-hypertrophic effect
same,cardiac output,[3]; [5],improved
same,ejection fraction,[3]; [5],improved
same,fractional shortening,[3]; [5],improved
same,stroke volume,[3]; [5],improved
same,PE effect on left ventricular internal diameter,"[3]; PE 2 weeks followed by LY2835219 3 weeks, 75 mg/kg/day oral",reversed
same,"cardiac function (ejection fraction, fractional shortening, stroke volume, cardiac output)","[3]; PE treated rats subjected to LY2835219 for 3 weeks, compared with control rats and PE treated rats",significantly enhanced cardiac function
same,PE effect on thickness of left ventricular anterior wall,[3]; [6],reversed
same,PE effect on thickness of left ventricular posterior wall,[3]; [6],reversed
same,PE effect on thickness of septal wall,[3]; [6],reversed
same,oxygen consumption rate (OCR),cardiomyocytes (NRVMs),increase the rate of oxygen consumption
same,cardiac angiogenesis,[4]; LY2835219 in PE treated animals,improve angiogenesis
same,cardiac angiogenesis,[4]; LY2835219 treatment,increased angiogenesis
"CNC[C@H](O)c1cccc(O)c1 [PE, phenylephrine]",cardiac fibrosis,cardiac fibrosis; [7],significant increase in cardiac fibrosis
same,Mean Cardiomyocyte Length,"[1]; 24 h, 100 µM",191 µm
same,Mean NT Pro-BNP levels,[2]; control PE,3236.015 pg/mL
same,Pro-NT BNP levels compared to UT and CT1 treated cells,[2],significantly elevated levels
same,Heart Weight/Body Weight ratio,"[3]; PE 10 mg/kg/day, compared to sham (PBS), LY2835219 alone, and PE 2 weeks followed by 3 weeks LY2835219",significantly increased
same,heart size (whole heart image),"[3]; PE treated group compared to control and drug treatment group, FIG. 14",enlarged
same,cardiac output,"[3]; PE treated rats, after 2 weeks",decreased
same,ejection fraction,"[3]; PE treated rats, after 2 weeks",decreased
same,percentage fractional shortening,"[3]; PE treated rats, after 2 weeks",decreased
same,stroke volume,"[3]; PE treated rats, after 2 weeks",decreased
same,left ventricular internal diameter,[3]; PE treatment group,reduced
same,thickness of left ventricular anterior wall,[3]; [8],increased thickness
same,thickness of left ventricular posterior wall,[3]; [8],increased thickness
same,thickness of septal wall,[3]; [8],increased thickness
same,oxygen consumption rate (OCR),cardiomyocytes (NRVMs),reduced oxygen consumption rate
same,CD31 staining,[4]; [7],significantly decreased CD31 staining
